Test results as given in patent US8647845B2, “Method for producing sugar” (Asahi Group Holdings, Ltd., priority 2008, dated 2014).

Target: T1, sucrase (Saccharomyces cerevisiae, UniProt P00724)
T1 construct: S. cervisiae (Taiken 396 strain) which is a general yeast having sucrase; endogenous in cells; host or cells: Saccharomyces cerevisiae Taiken 396 strain (live yeast in sugarcane-pressed juice)
T1 sequence (P00724 20-532): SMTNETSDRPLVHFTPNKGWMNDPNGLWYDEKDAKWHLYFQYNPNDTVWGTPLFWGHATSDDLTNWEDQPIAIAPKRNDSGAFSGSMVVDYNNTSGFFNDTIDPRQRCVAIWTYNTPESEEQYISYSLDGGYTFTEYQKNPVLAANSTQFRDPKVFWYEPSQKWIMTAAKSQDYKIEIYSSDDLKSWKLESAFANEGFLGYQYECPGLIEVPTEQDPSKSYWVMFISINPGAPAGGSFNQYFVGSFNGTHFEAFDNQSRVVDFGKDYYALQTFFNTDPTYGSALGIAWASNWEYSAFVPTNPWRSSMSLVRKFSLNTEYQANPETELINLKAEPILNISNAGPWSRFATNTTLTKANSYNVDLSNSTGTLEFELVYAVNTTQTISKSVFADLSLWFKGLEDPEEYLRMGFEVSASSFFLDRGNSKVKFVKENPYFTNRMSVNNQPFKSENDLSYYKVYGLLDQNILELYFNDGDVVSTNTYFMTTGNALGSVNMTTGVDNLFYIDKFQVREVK
Assay: Fermentation test on sugarcane-pressed juice using sucrase inhibitor
Format: cell-based, S. cervisiae (Taiken 396 strain)
Settings: 60 mM inhibitor
Experimental: S. cervisiae ([…] 396 strain) which is a general yeast having sucrase was planted in a sugarcane-pressed juice. Methyl-α-D-glucopyranoside serving as a sucrase inhibitor was added thereto at a concentration 60 mM. A fermentation test was conducted to examine the changes in the concentrations of sucrose, invert sugars, and ethanol over time. The fungal strain used for fermentation had been pre-precultured by shaking in 10 mL of a YM medium at 30° C. for 24 hours, and then further precultured by shaking in 500 mL of a YPD medium at 30° C. for 12 hours. The yeast was collected from the precultured medium by centrifugation. 100 mL of the pressed juice (in the pressed juice, the sucrose concentration was 10.0%, and the invert sugar concentration was 3.0%) and 60 mM of methyl-α-D-glucopyranoside were placed in a 300-mL Erlenmeyer flask with a fermentation lock. The yeast collected from the precultured medium by centrifugation was added into the flask for fermentation. The fermentation was carried out by shaking at 30° C. at 120 rpm.

[1] = 6 hours after the fermentation was started

Which “invert sugars converted into ethanol” value [1] does the source give for CO[C@H]1O[C@H](CO)[C@@H](O)[C@H](O)[C@H]1O [methyl-α-D-glucopyranoside] here?
The value was “all the invert sugars were converted into ethanol”.

What about the sucrose remaining [1] of the same compound?
Its sucrose remaining is “approximately half of the sucrose remained”.

What about the “sucrose ratio of the fermented liquid” value (8 hours after the fermentation was started) of the same compound?
The value was 94.0%.

What about the sucrose decomposition speed (sugarcane-pressed juice (sucrose 10.0%, invert sugar 3.0%), 30° C., compared with no inhibitor) of the same compound?
The sucrose decomposition speed was “made slow”.
